Experiments:
[1] = cited from earlier work
[2] = molecular target: human TfR (Homo sapiens, UniProt P02786); conditions: SPR, 40 nM analyte, HBS-P+ pH 7.4, 56 RUs captured human TfR
[3] = cited from earlier work; remark: listed apart in the source
[4] = test system: TfR; conditions: cited from earlier work

Sequence of human TfR (P02786 121-760): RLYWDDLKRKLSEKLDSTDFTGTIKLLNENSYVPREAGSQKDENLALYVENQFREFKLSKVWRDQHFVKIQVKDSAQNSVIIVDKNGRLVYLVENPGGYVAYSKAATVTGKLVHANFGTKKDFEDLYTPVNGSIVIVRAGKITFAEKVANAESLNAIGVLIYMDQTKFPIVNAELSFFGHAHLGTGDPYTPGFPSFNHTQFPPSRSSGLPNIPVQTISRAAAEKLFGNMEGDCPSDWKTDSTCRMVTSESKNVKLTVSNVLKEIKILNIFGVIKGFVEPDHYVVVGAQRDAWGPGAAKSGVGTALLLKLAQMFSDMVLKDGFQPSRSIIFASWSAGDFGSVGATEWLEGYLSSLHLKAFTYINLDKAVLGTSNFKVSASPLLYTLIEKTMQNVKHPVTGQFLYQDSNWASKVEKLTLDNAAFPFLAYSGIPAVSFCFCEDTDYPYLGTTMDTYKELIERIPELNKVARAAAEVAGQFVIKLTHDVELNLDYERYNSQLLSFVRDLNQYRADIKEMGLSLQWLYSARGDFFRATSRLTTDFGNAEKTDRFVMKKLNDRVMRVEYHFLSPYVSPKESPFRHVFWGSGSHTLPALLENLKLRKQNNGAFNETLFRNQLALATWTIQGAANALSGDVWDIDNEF

Angiopep-2
serum degradation half-life [1]: ~ 20 minutes

holo-transferrin
interaction with captured TfR [2]: demonstrated an interaction

transferrin
plasma half-life [3]: 40 h | endocytosis rate t½ [4]: 3.5 min
